Data published in paper PMC9065678, “BI 1015550 is a PDE4B Inhibitor and a Clinical Drug Candidate for the Oral Treatment of Idiopathic Pulmonary Fibrosis” (Frontiers in Pharmacology, 2022).

Assays:
[1] = test system: LPS-stimulated TNF-α release; assay: LPS-induced TNF-α release in rat whole blood; type: cell-based; conditions: LPS 10 µg/mL
Protocol: Heparinized whole blood was collected from the Aorta abdominalis of WI (Han) male rats (Charles River Laboratories, Sulzfeld, Germany) and from healthy male human donors, and treated with 1 µL (rat) or 2.5 µL (human) of BI 1015550 or vehicle [final DMSO concentration 0.5% (v/v)]. Final assay volumes were 200 μL (rat) and 500 μL (human). After incubation for 30 min at 37°C, 95% humidity, and 5% CO2, cultures were treated with LPS [final concentration 10 µg/mL (rat), 0.1 µg/mL (human)] or saline. After 7 h, plates were centrifuged at 3.200 × g at 4°C for 10 min and plasma was used for cytokine measurement. Meso Scale Discovery (MSD) (Rockville, MD, United States) rat and human pro-inflammatory panels were used for detection of TNF-α and IL-6 in rat plasma [diluted 1:2 (v/v)]) and human plasma [negative control undiluted, other samples diluted 1:200 (v/v)] according to the manufacturer’s instructions.

PDE9A = molecular target: T1, PDE9A (Homo sapiens, UniProt O76083); assay: Recombinant PDE activity, scintillation proximity assay: PDE9A; type: biochemical; conditions: substrate cGMP
T1 construct: the full-length open reading frames of PDE1C; made in house; host or cells: SF9 insect cells (baculovirus, Bac-To-Bac, pFastbac)
T1 sequence (O76083 whole entry): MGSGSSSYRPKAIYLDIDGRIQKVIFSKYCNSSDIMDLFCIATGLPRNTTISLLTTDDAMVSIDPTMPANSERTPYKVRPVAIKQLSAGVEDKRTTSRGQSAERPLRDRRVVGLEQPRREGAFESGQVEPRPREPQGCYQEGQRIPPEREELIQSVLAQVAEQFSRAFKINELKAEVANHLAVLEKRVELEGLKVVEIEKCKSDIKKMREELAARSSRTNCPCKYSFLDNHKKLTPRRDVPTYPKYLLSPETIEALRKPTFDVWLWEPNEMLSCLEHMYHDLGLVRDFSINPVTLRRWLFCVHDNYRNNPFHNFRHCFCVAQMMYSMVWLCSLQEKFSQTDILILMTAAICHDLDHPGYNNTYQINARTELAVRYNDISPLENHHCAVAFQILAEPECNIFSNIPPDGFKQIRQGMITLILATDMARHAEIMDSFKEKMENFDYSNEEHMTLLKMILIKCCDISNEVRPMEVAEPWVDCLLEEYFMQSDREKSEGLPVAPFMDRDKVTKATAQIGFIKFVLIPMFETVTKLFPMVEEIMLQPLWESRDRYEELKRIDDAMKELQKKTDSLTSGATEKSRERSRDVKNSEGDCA
Text: For the preparation of human recombinant PDEs of interest, the Bac-To-Bac baculoviral expression system from Invitrogen (Carlsbad, CA, United States) was used according to the instruction manual. In short, the full-length open reading frames of PDE1C (National Center for Biotechnology Information Gene-Ref-Seq identifier NG_051183), PDE3A (NG_030033), PDE4A (NG_029594, AA 156–886), PDE4C (NG_029629), PDE7A (NG_029614), and PDE9A (NG_047067) were cloned into the plasmid vector pFastbac. For PDE4B and PDE4D, active site fragments were used (PDE4B NG_029038: AA 152–484, PDE4D NG_027957, AA 79–438). The plasmids were transformed into DH10Bac bacteria, SF9 insect cells were transfected with the bacmid DNA, and the resulting baculoviruses were stored and used for further rounds of infections. […] The protein content was measured and an equal volume of 87% (v/v) glycerol was added prior to freezing at −20°C. […] The reaction was stopped by addition of 50 µL of yttrium silicate scintillation proximity assay beads (17.8 mg/mL, 18 mM zinc sulfate in H2O) and the amount of produced [^3H]AMP/[^3H]GMP associated was determined using a Wallac Microbeta scintillation counter. […]

Col3A1 mRNA expression = assay: TGF-β-induced Col3A1 mRNA expression in IPF lung fibroblasts (Taqman); type: cell-based, human
Protocol: Fibroblasts from donors with IPF (IPF-LF) (Asterand, Detroit, MI, United States) were grown in fibroblast basal medium (CC-3131, Lonza Walkersville, Inc., Walkersville, MD, United States) supplemented with FGM-2 SingleQuot Kit Supplements and Growth Factors (CC-4126, Lonza). Cells were grown in a humidified incubator at 37°C and 5% CO2. All assays were performed at passage 7 or 8. For assay set-up, cells were seeded in fibroblast growth medium plus supplements in assay-relevant densities. For TGF-β-stimulated assays, cells were seeded at 4,500 cells per well in 96-well plates. Proliferation assays were performed in 96-well plates at an initial seeding cell density on day 0 of 2,000 cells per well. After 24-h, the cell culture medium was changed to starvation medium (fibroblast basal medium without supplements). […]
For determination of Col1A1, Col3A1, and FN mRNA expression, IPF-LF cells were stimulated with TGF-β (4 ng/mL) for 48 h. […] Quantitative real-time polymerase chain reactions were set up using the TaqMan™ Fast Advanced Master Mix (Applied Biosystems, Carlsbad, CA, United States) and species-specific gene expression assays: Col1A1 #Hs00164004_m1 FAM, Col3A1 #Hs0094309_m1 FAM, FN #Hs01549976_m1 FAM, 18S #4310893E. […] Fold-change of gene expression was calculated by the Viia7 software (regulation based upon housekeeper).

IC50 [1]: 91 nM
IC50 (PDE9A): > 100000 nM
Compound: [O-][S+]1CCc2nc(N3CCC(c4ncc(Cl)cn4)CC3)nc(NC3(CO)CCC3)c21 (centres unmarked) [BI 1015550]
Extent of inhibition of TNF-α release [1]: completely inhibited
IC50 (Col3A1 mRNA expression; IPF-LF, TGF-β 4 ng/mL, 48 h, read-out: IC50 TGF-β-induced Col3 mRNA expression): 213 nM
Combination effect in inhibiting Col3 mRNA expression (Col3A1 mRNA expression; combination with nintedanib at 100 nmol/L): additive effects
